LogP data for 33 compounds are collected here from patent US20190110476A1, “NOVEL ISOTHIAZOLAMIDES, PROCESSES FOR THEIR PREPARATION AND THEIR USE AS FUNGICIDES” (priority 2014, published 2019).

This data set can be described thus: Measurement of LogP values by HPLC on reversed phase columns (EEC directive 79/831 Annex V.A8). In kind it is physicochemical. Put shortly: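 Following EEC directive 79/831 Annex V.A8, lipophilicity was derived from retention on reversed-phase HPLC columns. Separate values are given per diastereoisomer, and UV lambda-max (200–400 nm) was read at the peak signals.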

Marks after values point to notes of the source that are not given here.

For `COc1ccc(CNc2nsc(C(=O)NC(C)c3cccnc3)c2Cl)cc1` (stereo not drawn) [I-1253], the LogP was 1.63[a].

Regarding `CCC1(C)CC(NC(=O)c2snc(NCc3ccc(OC)cc3)c2Cl)CC(C)(C)C1` (stereo not drawn) [I-1254], the LogP was 5.72[a].

With `COc1ccc(CNc2nsc(C(=O)NCCc3ccccn3)c2Cl)cc1` [I-1255], the LogP is 1.52[a].

`COc1ccc(CNc2nsc(C(=O)NC(C)c3ccc(Cl)cc3Cl)c2Cl)cc1` (stereo not drawn) [I-1256]: the LogP was 4.61[a].

`COc1ccc(CNc2nsc(C(=O)NCc3cn(C(C)C)nc3C)c2Cl)cc1` [I-1257]: the LogP is 2.82[a].

Regarding `COc1ccc(CNc2nsc(C(=O)NCc3cnn(CC(F)(F)F)c3)c2Cl)cc1` [I-1258], the LogP is 2.84[a].

Turning to `CCCCCn1cc(CNC(=O)c2snc(NCc3ccc(OC)cc3)c2Cl)c(C)n1` [I-1259], the LogP is 3.57[a].

For `CCCCn1cc(CNC(=O)c2snc(NCc3ccc(OC)cc3)c2Cl)c(C)n1` [I-1260], the LogP is 3.21[a].

For `COc1ccc(CNc2nsc(C(=O)NC(C)c3ccsc3)c2Cl)cc1` (stereo not drawn) [I-1261], the LogP was 3.61[a].

Consider `COc1ccc(CNc2nsc(C(=O)NCc3cnn(CC(C)C)c3C)c2Cl)cc1` [I-1262], for which the LogP was 3.21[a].

Consider `COc1ccc(CNc2nsc(C(=O)NCCCn3ccnc3C)c2Cl)cc1` [I-1263], for which the LogP was 1.44[a].

Turning to `COc1ccc(CNc2nsc(C(=O)NCc3cc(F)cc(C(F)(F)F)c3)c2Cl)cc1` [I-1264], the LogP was 4.15[a].

In the case of `CCC(NC(=O)c1snc(NCc2ccc(OC)cc2)c1Cl)c1ccccc1` (stereo not drawn) [I-1265], the LogP is 4.03[a].

With `COc1ccc(CNc2nsc(C(=O)NCCC3=CCCCC3)c2Cl)cc1` [I-1266], the LogP is 4.44[a].

Take `COc1ccc(CNc2nsc(C(=O)NC(C)(C)c3nc(C)cs3)c2Cl)cc1` [I-1267]: the LogP is 3.63[a].

`COc1ccc(CNc2nsc(C(=O)NCc3cccc4ccccc34)c2Cl)cc1` [I-1268]: the LogP is 4.11[a].

For the compound `COc1ccc(CNc2nsc(C(=O)NCCc3cccs3)c2Cl)cc1` [I-1269], the LogP is 3.55[a].

In the case of `COc1ccc(CNc2nsc(C(=O)NCc3noc(C)n3)c2Cl)cc1` [I-1270], the LogP was 2.47[a].

As to `COc1ccc(CNc2nsc(C(=O)NCc3ncccc3OC)c2Cl)cc1` [I-1271], the LogP is 2.70[a].

As to `COc1ccc(CNc2nsc(C(=O)NCc3ccc(F)c(C(F)(F)F)c3)c2Cl)cc1` [I-1272], the LogP was 4.06[a].

For `COc1ccc(CNc2nsc(C(=O)NC(C)c3ccc(Br)cc3)c2Cl)cc1` (stereo not drawn) [I-1273], the LogP is 4.23[a].

Take `COc1ccc(CNc2nsc(C(=O)NCc3cccc(C(C)C)n3)c2Cl)cc1` [I-1274]: the LogP was 2.94[a].

As for `COc1ccc(CNc2nsc(C(=O)NC(C)c3cccc4ccccc34)c2Cl)cc1` (stereo not drawn) [I-1275], the LogP is 4.32[a].

Consider `COc1ccc(CNc2nsc(C(=O)NC(C)c3ccc(C(F)(F)F)cc3)c2Cl)cc1` (stereo not drawn) [I-1276], for which the LogP was 4.23[a].

For `COc1ccc(CN(C(=O)OC(C)(C)C)c2nsc(C(=O)N(C)OC)c2Cl)cc1` [I-1286], the LogP was 3.75[a].

With `N#Cc1ccccc1CNC(=O)c1snc(N)c1Cl` [I-1288], the LogP is 1.43[a].

Regarding `N#Cc1cccc(CNC(=O)c2snc(N)c2Cl)c1` [I-1289], the LogP is 1.41[a].

Consider `Nc1nsc(C(=O)NCC2CCCCC2Cl)c1I` (stereo not drawn) [I-1293], for which the LogP is 2.50[a].

Regarding `Nc1nsc(C(=O)NCC2CCCCC2(F)F)c1Cl` (stereo not drawn) [I-1294], the LogP was 2.07[a].

Regarding `Nc1nsc(C(=O)NCC2CC=C(F)CC2)c1F` (stereo not drawn) [I-1296], the LogP is 1.69[a].

In the case of `Nc1nsc(C(=O)NCC2CCC(F)(F)CC2)c1F` [I-1297], the LogP was 1.66[a].

As for `Nc1nsc(C(=O)NCC2CCCCC2F)c1Cl` (stereo not drawn) [I-1306], the LogP is 1.97[a].

On to `CCOC(=O)c1cccc(CNC(=O)c2snc(N)c2Cl)c1` [I-1307], for which the LogP is 2.03[a].
